# Experimental data: US8680076B2, “Methods of treatment, improvement and prevention using haloaryl substituted aminopurines” (Signal Pharmaceuticals, LLC, priority 2010, dated 2014)
# Entries after “also recorded” stand apart in the source; their conditions may differ.
# What was measured:
# [1] = tested on: phosphorylation of the JNK target cJun in dermal SSc-fibroblasts; test: Western Blot analysis of c-Jun phosphorylation in TGF-β/PDGF-stimulated cultured dermal fibroblasts; assay type: cell-based, human; conditions: pre-incubation with compound
# Procedure: To analyze whether the JNK pathway was activated by TGF-β and PDGF, Western Blot analysis for c-Jun in cultured dermal fibroblasts was performed.
# After rinsing twice with PBS, the dermal fibroblasts were trypsinized and lysed with Laemmli Buffer. Five μg of protein from each sample were separated by 10% SDS-PAGE and electrotransferred onto polyvinylidene difluoride (PVDF) membranes according to standard protocols (Distler J H, Jungel A, Kowal-Bielecka O, Michel B A, Gay R E, Sprott H, et al. Expression of interleukin-21 receptor in epidermis from patients with systemic sclerosis. Arthritis Rheum. 2005; 52(3):856-64). Immunoblots were incubated with monoclonal antibodies against c-Jun and phospho-c-Jun (Santa Cruz, Heidelberg, Germany) at a dilution of 1:200 overnight at 4° C. After incubation with horseradish peroxidase-conjugated rabbit anti-mouse antibodies (Dako, Hamburg, Germany) for 1 hour at a dilution of 1:2000, signals were detected with ECL Western Blotting Detection Reagents (Amersham Bioscience, Freiburg, Germany). For confirmation of equal loading of proteins, the amount of β-actin was determined using mouse anti-human β-actin antibodies (Sigma-Aldrich, Munich, Germany; dilution 1:10000).
# [2] = tested on: DBA/2J mice, bleomycin-induced skin fibrosis; test: Bleomycin-induced dermal fibrosis mouse model (preventive treatment); assay type: in vivo; conditions: for reduction of collagen content in lesional skin (hydroxyproline assay): compared to bleomycin-treated animals
# Procedure: The selective JNK inhibitor Compound JNKi-1 was tested in a bleomycin-induced dermal fibrosis mouse model, which is considered to represent the early and inflammatory stages of systemic sclerosis (Akhmetshina A, Venalis P, Dees C, Busch N, Zwerina J, Schett G, Distler O, Distler J H, Treatment with imatinib prevents fibrosis in different preclinical models of systemic sclerosis and induces regression of established fibrosis, Arthritis Rheum. 2009; 60(1):219-24). […] In animal models it will similarly induce injury and fibrosis at the site of delivery.
# Male and female DBA/2J mice were used. Mice were fed a standard diet with water ad libitum. The room temperature was kept constant at 22° C. with a humidity of 60%.
# Compound JNKi-1 was dissolved in 0.5% carboxymethylcellulose (CMC)/0.25% Tween 80 in water. Bleomycin was dissolved in 0.9% sodium chloride (NaCl) at a concentration of 0.5 mg/mL in a total volume of 100 μL. The positive control compound Imatinib mesylate was dissolved in 0.9% NaCl at a concentration of 50 mg/kg/day in a total volume of 100 μL.
# Two different dose levels of the JNK-inhibitor Compound JNKi-1 (50 mg/kg and 150 mg/kg, administered twice daily) were used to analyze the anti-fibrotic activity in a mouse model of bleomycin-induced skin fibrosis. […] DBA/2J mice (n=5/sex/group) were assigned to one of five treatment groups: • Control group: 0.5% CMC/0.25% Tween 80 in water orally (PO) twice daily (BID) and subcutaneous injections of 100 μL 0.9% NaCl. • Untreated bleomycin group: intradermal injection of bleomycin and 0.5% CMC/0.25% Tween 80 in water orally BID. • 50 mg/kg Compound JNKi-1: intradermal injection of bleomycin and Compound JNKi-1 orally BID. • 150 mg/kg Compound JNKi-1: intradermal injection of bleomycin and Compound JNKi-1 orally BID. • Positive control group: intradermal injection of bleomycin and imatinib 50 mg/kg/day administered intraperitoneally (IP).
# Localized dermal fibrosis was induced by injection of bleomycin every other day for 3 weeks in defined areas of the upper back. Compound JNKi-1 or imatinib was administrated starting from the first dose of bleomycin.
# The dermal thickness was determined by staining with hematoxylin and eosin (H & E). The activated fibroblasts (myofibroblasts) at the fibrotic lesions were quantified by immunohistochemistry (IHC) for alpha smooth muscle actin (α-SMA). Collagen concentration in lesional skin was analyzed by hydroxyproline assay. Data are expressed as mean±standard error of the mean (SEM). SPSS17.0 software and the Mann-Whitney-U-test were used for statistical analyses. A p-value of less than 0.05 was considered statistically significant.
compound,measurement,setting,value
"O[C@H]1CC[C@H](Nc2ncc3nc(Nc4c(F)cc(F)cc4F)n([C@H]4CCOC4)c3n2)CC1 [JNKi-1, 4-((9-((3S)-tetrahydro-3-furanyl)-8-((2,4,6-trifluorophenyl)amino)-9H-purin-2-yl)amino)-trans-cyclohexanol]",stimulatory effect of PDGF on c-Jun phosphorylation,[1],completely prevented
same,stimulatory effects of TGF-β and PDGF on the phosphorylation of c-Jun,[1],reduced the stimulatory effects
same,decrease of dermal thickness,"[2]; 50 mg/kg orally BID, 3 weeks bleomycin, mean±SEM",24%±5%
same,reduction of collagen content in lesional skin (hydroxyproline assay),[2]; 50 mg/kg orally BID,29%±11%
same,reduction of number of myofibroblasts (α-SMA IHC),"[2]; 50 mg/kg orally BID, mean±SEM",80%±10%
same,reduction of collagen content in lesional skin (hydroxyproline assay),[2]; 150 mg/kg orally BID,47%±9%
same,reduction of number of myofibroblasts (α-SMA IHC),"[2]; 150 mg/kg orally BID, mean±SEM",101%±9%
same,collagen content in lesional skin (in words),[2]; 50 and 150 mg/kg orally BID,reduced dose-dependently
same,dermal thickness / development of fibrosis (in words),[2]; 50 and 150 mg/kg orally BID,decreased dose-dependently; also recorded: reduced dose dependently; also recorded: significantly ameliorated; also recorded: dose-dependently inhibited dermal thickness
same,myofibroblasts in lesional skin (in words),[2]; 50 and 150 mg/kg orally BID,significantly decreased; also recorded: completely prevented
